# Measured values as given in patent US20080261891A1, “COMPOSITIONS AND METHODS FOR USING SYRINGOPEPTIN 25A AND RHAMNOLIPIDS” (Utah State University, priority 2007, published 2008).
# Where a SMILES comes first, the peptide text is derived from it. Bridges are numbered along the chain shown (N, C = ends). [ ]: non-standard residue; d: D form. The star is where a group is joined. ξ: configuration not given here. Decanoyl(3ξ-OH) = CCCCCCCC(O)CC(=O)*; Dab = NCC[CH](N)C(=O)O; Dhb = C/C=C(\N)C(=O)O
# Tests used:
# [1] = test system: organisms tested (gram-positive and gram-negative bacteria, Table 1)
# Mycobacterium smegmatis = assay type: cell-based
# [2] = test system: human lung fibroblasts (LL47); test: Toxicity to mammalian cells, percent cell death (Nucleocounter); settings: 4 μg/mL and 8 μg/mL, 6, 24, and 48 h
# Method: (§1) Toxicity of the two compounds to mammalian cells was assayed in cell culture using mouse enteroendocrine cells (STC-1), human embryonic kidney cells (HEK 293; ATCC CRL-1573), and human lung fibroblasts (LL47; ATCC CCL-135). […] The human embryonic kidney cells and human lung fibroblasts were grown as per the American Type Culture Collection's recommendation, while the mouse enteroendocrine cells were grown as described by Vincent et al. (2001, Proc. Natl. Acad. Sci., 99:2392-2397). Media and sera were purchased from HyClone Laboratories (Logan, Utah). All cells were grown in 10% fetal bovine serum (FBS).
# (§2) The number in the parenthesis represents the concentration of each compound in μg/mL. The percent cell death was benchmarked to 100% lysis with the positive control. The number of total cells and dead cells were counted after 6, 24, and 48 h using a Nucleocounter Automated cell counting system (New Brunswick; Edison, N.J.). Briefly, cells (STC, 200,000 cells/well; HEK 293, 200,000 cells/well; and LL47, 100,000 cells/well) were incubated in the appropriate medium for 24 h prior to addition of fresh media containing the antimicrobial compounds. After addition of the antimicrobial compound, the cell cultures were incubated at 37° C. with 5% CO2 for 6, 24, and 48 h. Cells were harvested by trypsinization using 0.25% trypsin-EDTA for 2 min. The trypsin was neutralized by addition of 200 μL of serum containing fresh medium. The cells were then harvested and transferred to 1.5 mL tubes, centrifuged (3-5 min at <100×g), and resuspended in 200 μL of fresh medium. For the total cell count, 100 μL of the suspension was added to lysis buffer (Reagent A100 in the starting kit (Cat No. M1293-0020, New Brunswick Scientific) for 30 s, which was stabilized using 100 μL of Reagent B. A positive control of completely lysed cells was used along with a negative control using sterile PBS (pH 7.4). For dead cell counts, 100 μL of cell lysate was counted without the use of lysis buffer or stabilizing buffer. All cell counts were obtained using the Nucleocounter automated cell counting system. Data were reported as the percent of cell death. The toxicity testing was done in replicate using three wells per test.
# [3] = test system: mouse enteroendocrine cells (STC-1); test: as above; settings: 4 μg/mL and 8 μg/mL, 6, 24, and 48 h
# Method: as §1, §2
# [4] = test system: human embryonic kidney cells (HEK 293); test: as above; settings: 4 μg/mL and 8 μg/mL, 6, 24, and 48 h
# Method: as §1, §2
# Listeria monocytogenes = test: MIC, microbroth dilution method; assay type: cell-based; settings: 48 h
# Method: (§3) The MIC of the compounds for the organisms was determined by the microbroth dilution method, described hereafter. The microorganisms were prepared as described above and resuspended in their optimal growth media (Table 1) to ˜10^5 CFU/mL containing SP 25A at 2, 3, 4, 5, 6, 7, 8, 16, 32 and 50 μg/mL in a total volume of 550 μL. RL concentrations of 2, 3, 4, 5, 6, 7, 8, 16, 32 and 60 μg/mL in a total volume of 550 μL were tested in a 48-well plate (Corning, N.Y.). The plates were incubated at optimal growth conditions for the respective organism and monitored for an increase in OD600 after 48 h by a Perkin-Elmer (HTS 7000) plate reader (Downers Grove, Ill.). […] Negative controls (no inhibition of growth) were included using saline in the assay for each compound. The lowest concentration at which there was no increase in OD over 48 h was reported as the MIC. Each MIC was determined in replicate with three separate tests per replication. The results of the three tests were averaged for each replicate.
# Streptococcus suis [5] = test: MIC, microbroth dilution method; assay type: cell-based; settings: 48 h
# Method: as §3
# Salmonella typhimurium = test: MIC, microbroth dilution method; assay type: cell-based; settings: 48 h
# Method: as §3
# [6] = test system: Klebsiella pneumoniae subsp. Pneumoniae; test: Inhibition rate (IR), propidium iodide uptake; assay type: cell-based
# Method: (§4) The antimicrobial action for each compound was initially determined by the rate of uptake of propidium iodide (Fluoropure grade, Molecular Probes, Inc., Eugene, Oreg.) as previously described (Haughland, R. P., 2002, Handbook of fluorescent probes and research chemicals, 9th ed. Molecular Probes, Inc., Eugene, Oreg.). Briefly, all cultures were grown overnight in their respective optimal growth medium and temperature from freezer vials (Table 1). Each culture was sub-cultured twice, harvested in mid-log phase, washed with saline, and adjusted to an appropriate concentration by measuring the optical density at 600 nm. PI, with an excitation wavelength of 535 and an emission wavelength of 617, was added to the culture suspension at a final concentration of 10 μM. Each organism was treated with 50 μg/mL SP 25A and 60 μg/mL of the RL mixture in a final volume of 2.2 mL. The increase in fluorescence was measured with a Shimadzu RF 1501 spectrophotofluorometer at 15 s intervals for a maximum period of 120 min. Saline was added in place of SP 25A or RLs as a negative control. All inhibition experiments were done in replicate.
# (§5) The rate of antimicrobial action was expressed as the inhibition rate (“IR”). Curve fitting was done using OriginPro version 7.0 (Natick, Mass.). IR=((Log RFU/(Time))−C)/Time (when d Log RFU/dT>0). Where RFU=relative fluorescent units; and C=Y intercept.
# Brevibacterium linens = test: Inhibition rate (IR), propidium iodide uptake; assay type: cell-based
# Method: as §4, §5
# Bacillus megaterium = test: Inhibition rate (IR), propidium iodide uptake; assay type: cell-based
# Method: as §4, §5
# Enterobacter aerogenes = test: Inhibition rate (IR), propidium iodide uptake; assay type: cell-based
# Method: as §4, §5
# Flavobacterium devorans = test: Inhibition rate (IR), propidium iodide uptake; assay type: cell-based
# Method: as §4, §5
# [7] = test system: Lactococcus lactis subsp. Lactis; test: Inhibition rate (IR), propidium iodide uptake; assay type: cell-based
# Method: as §4, §5
# [8] = test system: Streptococcus agalacticae; test: Inhibition rate (IR), propidium iodide uptake; assay type: cell-based
# Method: as §4, §5
# Streptococcus suis [9] = test: Inhibition rate (IR), propidium iodide uptake; assay type: cell-based
# Method: as §4, §5
# Citrobacter fruendii = test: Inhibition rate (IR), propidium iodide uptake; assay type: cell-based
# Method: as §4, §5
# Bacillus cereus = test: Inhibition rate (IR), propidium iodide uptake; assay type: cell-based
# Method: as §4, §5
# Enterococcus faecalis = test: Inhibition rate (IR), propidium iodide uptake; assay type: cell-based
# Method: as §4, §5
compound,measurement,setting,value
"C/C=C(\NC(=O)C(C)NC(=O)C(C)NC(=O)C(CC(C)C)NC(=O)C(NC(=O)C(C)NC(=O)C(C)NC(=O)C(NC(=O)C1CCCN1C(=O)/C(=C/C)NC(=O)CC(O)CCCCCCC)C(C)C)C(C)C)C(=O)NC(C(=O)N/C(=C\C)C(=O)NC(C)C(=O)NC(C(=O)NC(C)C(=O)NC(C)C(=O)N/C(=C\C)C(=O)NC1C(=O)NC(CO)C(=O)NC(C)C(=O)NC(C(C)C)C(=O)NC(C)C(=O)NC(CCN)C(=O)NC(CCN)C(=O)NC(Cc2ccc(O)cc2)C(=O)OC1C)C(C)C)C(C)C (stereo not drawn) [SP 25A, syringopeptin 25A] ({Decanoyl(3ξ-OH)}-[Dhb]PVAAVLAA[Dhb]V[Dhb]AVAA[Dhb]TSAVA[Dab][Dab]Y; ester 18-C; configuration not given here)",MIC range for the organisms tested,[1],3 to 16 µg/mL
same,MICs against gram-positive bacteria,[1],≤ 8 µg/mL
same,growth inhibition of gram-negative organisms tested,"[1]; gram-negative organisms, except F. devorans",did not inhibit the growth
same,MIC,Mycobacterium smegmatis,4 µg/mL
same,cytotoxicity (percent cell death),[2],No significant (p>0.05) cytotoxicity
same,cytotoxicity (percent cell death),[3],No significant (p>0.05) cytotoxicity
same,cytotoxicity (percent cell death),[4],No significant (p>0.05) cytotoxicity
same,MIC,Listeria monocytogenes,3 µg/mL
same,MIC,Streptococcus suis [5],4 µg/mL
same,MIC,Salmonella typhimurium,>50 µg/mL
same,IR SP 25A (50 μg/mL),[6],0.000
same,IR SP 25A (50 μg/mL),Brevibacterium linens,0.009
same,IR SP 25A (50 μg/mL),Bacillus megaterium,0.005
same,IR SP 25A (50 μg/mL),Enterobacter aerogenes,0.000
same,IR SP 25A (50 μg/mL),Flavobacterium devorans,0.002
same,IR SP 25A (50 μg/mL),[7],0.008
same,IR SP 25A (50 μg/mL),[8],0.004
same,IR SP 25A (50 μg/mL),Streptococcus suis [9],0.006
same,IR SP 25A (50 μg/mL),Citrobacter fruendii,0.000
same,IR SP 25A (50 μg/mL),Bacillus cereus,0.004
same,IR SP 25A (50 μg/mL),Enterococcus faecalis,0.001
